Measurements published in PubChem BioAssay (NCI).
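96-well plates; 48 h exposure; 5 concentrations. Endpoints by linear interpolation between flanking doses. Not reached: highest tested concentration assigned. The concentration for 50% growth inhibition is given as GI50. The concentration for full growth arrest is given as TGI.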

Tests used:
Assay in all cases: growth of human tumour cells (NCI), 48 h
786-0 renal = test system: 786-0 renal
A498 renal = test system: A498 renal
A549 NSCLC = test system: A549 NSCLC
ACHN renal = test system: ACHN renal
BT-549 breast = test system: BT-549 breast
CAKI-1 renal = test system: CAKI-1 renal
CCRF-CEM leukemia = test system: CCRF-CEM leukemia
COLO 205 colon = test system: COLO 205 colon
DU-145 prostate = test system: DU-145 prostate
EKVX NSCLC = test system: EKVX NSCLC
HCC-2998 colon = test system: HCC-2998 colon
HCT-116 colon = test system: HCT-116 colon
HCT-15 colon = test system: HCT-15 colon
HL-60(TB) leukemia = test system: HL-60(TB) leukemia
HOP-62 NSCLC = test system: HOP-62 NSCLC
HOP-92 NSCLC = test system: HOP-92 NSCLC
HS 578T breast = test system: HS 578T breast
HT29 colon = test system: HT29 colon
IGROV1 ovarian = test system: IGROV1 ovarian
K-562 leukemia = test system: K-562 leukemia
KM12 colon = test system: KM12 colon
LOX IMVI melanoma = test system: LOX IMVI melanoma
M14 melanoma = test system: M14 melanoma
MALME-3M melanoma = test system: MALME-3M melanoma
MCF7 breast = test system: MCF7 breast
MDA-MB-231 breast = test system: MDA-MB-231 breast
MDA-MB-435 = test system: MDA-MB-435
MOLT-4 leukemia = test system: MOLT-4 leukemia
NCI-H226 lung = test system: NCI-H226 lung
NCI-H23 lung = test system: NCI-H23 lung
NCI-H460 lung = test system: NCI-H460 lung
NCI-H522 lung = test system: NCI-H522 lung
NCI/ADR-RES ovarian = test system: NCI/ADR-RES ovarian
OVCAR-3 ovarian = test system: OVCAR-3 ovarian
OVCAR-4 ovarian = test system: OVCAR-4 ovarian
OVCAR-5 ovarian = test system: OVCAR-5 ovarian
OVCAR-8 ovarian = test system: OVCAR-8 ovarian
PC-3 prostate = test system: PC-3 prostate
RPMI-8226 leukemia = test system: RPMI-8226 leukemia
RXF 393 renal = test system: RXF 393 renal
SF-268 CNS = test system: SF-268 CNS
SF-295 CNS = test system: SF-295 CNS
SF-539 CNS = test system: SF-539 CNS
SK-MEL-28 melanoma = test system: SK-MEL-28 melanoma
SK-MEL-5 melanoma = test system: SK-MEL-5 melanoma
SK-OV-3 ovarian = test system: SK-OV-3 ovarian
SN12C renal = test system: SN12C renal
SNB-19 CNS = test system: SNB-19 CNS
SNB-75 CNS = test system: SNB-75 CNS
SR leukemia = test system: SR leukemia
SW-620 colon = test system: SW-620 colon
T-47D breast = test system: T-47D breast
TK-10 renal = test system: TK-10 renal
U251 CNS = test system: U251 CNS
UACC-257 melanoma = test system: UACC-257 melanoma
UACC-62 melanoma = test system: UACC-62 melanoma
UO-31 renal = test system: UO-31 renal

Structure (SMILES): COc1ccc([C@@H]2[C@@H](O)C(=O)N2c2cc(OC)c(OC)c(OC)c2)cc1Cl
- GI50 (786-0 renal): < 19.8 nM
- TGI (786-0 renal): > 100000 nM
- GI50 (A498 renal): 21700 nM
- TGI (A498 renal): > 100000 nM
- GI50 (A549 NSCLC): < 19.3 nM
- TGI (A549 NSCLC): > 100000 nM
- GI50 (ACHN renal): < 14.4 nM
- TGI (ACHN renal): > 100000 nM
- GI50 (BT-549 breast): < 14.4 nM
- TGI (BT-549 breast): 66.8 nM
- GI50 (CAKI-1 renal): < 12.2 nM
- GI50 (CCRF-CEM leukemia): < 18.5 nM
- TGI (CCRF-CEM leukemia): > 100000 nM
- GI50 (COLO 205 colon): < 15.6 nM
- TGI (COLO 205 colon): < 23.9 nM
- GI50 (DU-145 prostate): < 19 nM
- TGI (DU-145 prostate): > 100000 nM
- TGI (EKVX NSCLC): > 100000 nM
- GI50 (HCC-2998 colon): < 19.4 nM
- GI50 (HCT-116 colon): < 14.9 nM
- TGI (HCT-116 colon): > 100000 nM
- GI50 (HCT-15 colon): < 16.9 nM
- TGI (HCT-15 colon): > 100000 nM
- GI50 (HL-60(TB) leukemia): < 15.9 nM
- TGI (HL-60(TB) leukemia): 1830 nM
- GI50 (HOP-62 NSCLC): < 20.1 nM
- TGI (HOP-62 NSCLC): > 100000 nM
- GI50 (HOP-92 NSCLC): 16200 nM
- TGI (HOP-92 NSCLC): > 100000 nM
- GI50 (HS 578T breast): < 22.6 nM
- TGI (HS 578T breast): > 100000 nM
- GI50 (HT29 colon): < 10 nM
- GI50 (IGROV1 ovarian): < 20.3 nM
- TGI (IGROV1 ovarian): > 100000 nM
- GI50 (K-562 leukemia): < 14.3 nM
- TGI (K-562 leukemia): > 100000 nM
- GI50 (KM12 colon): < 16.3 nM
- TGI (KM12 colon): > 100000 nM
- GI50 (LOX IMVI melanoma): < 11.4 nM
- TGI (LOX IMVI melanoma): > 100000 nM
- GI50 (M14 melanoma): < 17.1 nM
- TGI (M14 melanoma): > 100000 nM
- GI50 (MALME-3M melanoma): 219 nM
- TGI (MALME-3M melanoma): > 100000 nM
- GI50 (MCF7 breast): < 10 nM
- TGI (MCF7 breast): > 92000 nM
- GI50 (MDA-MB-231 breast): < 18.7 nM
- TGI (MDA-MB-231 breast): > 100000 nM
- GI50 (MDA-MB-435): < 10 nM
- TGI (MDA-MB-435): 24.8 nM
- GI50 (MOLT-4 leukemia): < 20 nM
- TGI (MOLT-4 leukemia): > 100000 nM
- GI50 (NCI-H226 lung): < 10 nM
- TGI (NCI-H226 lung): 75.3 nM
- GI50 (NCI-H23 lung): 35.3 nM
- TGI (NCI-H23 lung): > 100000 nM
- GI50 (NCI-H460 lung): < 18.9 nM
- GI50 (NCI-H522 lung): < 10 nM
- TGI (NCI-H522 lung): < 17.2 nM
- GI50 (NCI/ADR-RES ovarian): < 15.2 nM
- TGI (NCI/ADR-RES ovarian): 95.9 nM
- GI50 (OVCAR-3 ovarian): < 10 nM
- TGI (OVCAR-3 ovarian): 171 nM
- GI50 (OVCAR-4 ovarian): 2160 nM
- TGI (OVCAR-4 ovarian): > 100000 nM
- GI50 (OVCAR-5 ovarian): < 18.6 nM
- TGI (OVCAR-5 ovarian): > 100000 nM
- GI50 (OVCAR-8 ovarian): < 17.9 nM
- GI50 (PC-3 prostate): < 19.7 nM
- TGI (PC-3 prostate): > 100000 nM
- GI50 (RPMI-8226 leukemia): < 21.7 nM
- GI50 (RXF 393 renal): 43.1 nM
- TGI (RXF 393 renal): > 100000 nM
- GI50 (SF-268 CNS): < 21.6 nM
- TGI (SF-268 CNS): > 100000 nM
- GI50 (SF-295 CNS): < 11.1 nM
- TGI (SF-295 CNS): > 100000 nM
- GI50 (SF-539 CNS): < 10 nM
- TGI (SF-539 CNS): 49.1 nM
- GI50 (SK-MEL-28 melanoma): 146 nM
- TGI (SK-MEL-28 melanoma): > 100000 nM
- GI50 (SK-MEL-5 melanoma): < 14.9 nM
- TGI (SK-MEL-5 melanoma): 38 nM
- GI50 (SK-OV-3 ovarian): < 22.9 nM
- TGI (SK-OV-3 ovarian): > 51300 nM
- GI50 (SN12C renal): < 19.3 nM
- TGI (SN12C renal): > 100000 nM
- GI50 (SNB-19 CNS): < 24.1 nM
- TGI (SNB-19 CNS): > 100000 nM
- GI50 (SNB-75 CNS): 26.2 nM
- TGI (SNB-75 CNS): > 100000 nM
- GI50 (SR leukemia): < 10.7 nM
- TGI (SR leukemia): > 100000 nM
- GI50 (SW-620 colon): < 19.2 nM
- TGI (SW-620 colon): > 100000 nM
- GI50 (T-47D breast): 33100 nM
- TGI (T-47D breast): > 100000 nM
- GI50 (TK-10 renal): > 54900 nM
- TGI (TK-10 renal): > 100000 nM
- GI50 (U251 CNS): < 17.8 nM
- TGI (U251 CNS): > 100000 nM
- GI50 (UACC-257 melanoma): > 100000 nM
- TGI (UACC-257 melanoma): > 100000 nM
- GI50 (UACC-62 melanoma): < 10 nM
- TGI (UACC-62 melanoma): > 100000 nM
- GI50 (UO-31 renal): < 23.6 nM
- TGI (UO-31 renal): > 100000 nM

Structure (SMILES): CCCCOc1ccc(S(=O)(=O)N2CCN(c3nccc(N4CCOCC4)n3)CC2)cc1
- GI50 (786-0 renal): 2700 nM
- TGI (786-0 renal): > 100000 nM
- GI50 (A549 NSCLC): 654 nM
- TGI (A549 NSCLC): > 100000 nM
- GI50 (ACHN renal): 1920 nM
- TGI (ACHN renal): > 100000 nM
- GI50 (BT-549 breast): 2450 nM
- TGI (BT-549 breast): > 100000 nM
- GI50 (CAKI-1 renal): 1760 nM
- TGI (CAKI-1 renal): > 100000 nM
- GI50 (CCRF-CEM leukemia): 3440 nM
- TGI (CCRF-CEM leukemia): > 100000 nM
- GI50 (DU-145 prostate): 524 nM
- TGI (DU-145 prostate): > 100000 nM
- GI50 (HCC-2998 colon): 1840 nM
- TGI (HCC-2998 colon): > 100000 nM
- GI50 (HCT-116 colon): 484 nM
- TGI (HCT-116 colon): > 100000 nM
- GI50 (HCT-15 colon): 1710 nM
- TGI (HCT-15 colon): > 100000 nM
- GI50 (HL-60(TB) leukemia): 476 nM
- TGI (HL-60(TB) leukemia): > 100000 nM
- GI50 (HOP-62 NSCLC): 16300 nM
- TGI (HOP-62 NSCLC): > 100000 nM
- GI50 (HOP-92 NSCLC): 1800 nM
- TGI (HOP-92 NSCLC): 6910 nM
- GI50 (HS 578T breast): 3020 nM
- TGI (HS 578T breast): > 100000 nM
- GI50 (HT29 colon): 538 nM
- TGI (HT29 colon): > 100000 nM
- GI50 (K-562 leukemia): 3300 nM
- TGI (K-562 leukemia): > 100000 nM
- GI50 (KM12 colon): 1570 nM
- TGI (KM12 colon): > 100000 nM
- GI50 (M14 melanoma): 2710 nM
- TGI (M14 melanoma): > 100000 nM
- GI50 (MCF7 breast): > 100000 nM
- TGI (MCF7 breast): > 100000 nM
- GI50 (MDA-MB-435): 1500 nM
- TGI (MDA-MB-435): > 100000 nM
- GI50 (MOLT-4 leukemia): 1400 nM
- TGI (MOLT-4 leukemia): > 100000 nM
- GI50 (NCI-H460 lung): 481 nM
- TGI (NCI-H460 lung): > 100000 nM
- GI50 (NCI-H522 lung): > 100000 nM
- TGI (NCI-H522 lung): > 100000 nM
- GI50 (NCI/ADR-RES ovarian): 2020 nM
- TGI (NCI/ADR-RES ovarian): > 100000 nM
- GI50 (OVCAR-4 ovarian): 4730 nM
- TGI (OVCAR-4 ovarian): > 100000 nM
- GI50 (OVCAR-5 ovarian): > 100000 nM
- TGI (OVCAR-5 ovarian): > 100000 nM
- GI50 (OVCAR-8 ovarian): 4040 nM
- TGI (OVCAR-8 ovarian): > 100000 nM
- GI50 (PC-3 prostate): 3150 nM
- TGI (PC-3 prostate): > 100000 nM
- GI50 (RPMI-8226 leukemia): 422 nM
- TGI (RPMI-8226 leukemia): 5590 nM
- GI50 (SF-539 CNS): 4090 nM
- TGI (SF-539 CNS): > 100000 nM
- GI50 (SK-OV-3 ovarian): 2780 nM
- TGI (SK-OV-3 ovarian): > 100000 nM
- GI50 (SNB-19 CNS): 6650 nM
- TGI (SNB-19 CNS): > 100000 nM
- GI50 (SNB-75 CNS): 1770 nM
- TGI (SNB-75 CNS): 4390 nM
- GI50 (SR leukemia): 2770 nM
- TGI (SR leukemia): > 100000 nM
